# Reference: patent publication US8105797B2, “Diagnostic test” (priority 2004, dated 2012)
# Tested on: PBMCs from healthy unexposed BCG-vaccinated donors
# Assay type: cell-based, human
row,Sequence,response of BCG-vaccinated unexposed donor to individual peptide
1,"ESLVSDGLPGVKAAL (listed as Mycobacterium tuberculosis) [61-75, from Rv3878]",responded
2,LTATNFFGINTIPIA [119-133],responded
3,"YFIRMWNQAALAMEV (listed as Mycobacterium tuberculosis) [139-153, from pool 2 of Rv3873]",responded
4,"DTFYDRAQEYSQVLQ (listed as Mycobacterium tuberculosis) [26-40, from Rv3879c, pool 1]",responded
5,"AAKLAGLVFPQPPAP (listed as Mycobacterium tuberculosis) [16-30, from Rv3878]",responded
6,"LDPGASQSTTNPIFG (listed as Mycobacterium tuberculosis) [peptide 174-188, from Rv3873]",responded
